The values below are quoted from earlier work in patent US20110159054A1, “NANOPARTICULATE BICALUTAMIDE FORMULATIONS” (Elan Pharma International Ltd., priority 2004, published 2011).

For this data set the following is noted: 37° C., practically insoluble.

For `CC(O)(CS(=O)(=O)c1ccc(F)cc1)C(=O)Nc1ccc(C#N)c(C(F)(F)F)c1` (racemic) [Bicalutamide], the solubility in water was 5 mg per 1000 mL.
